System: MV4-11 cells
Assay: Cell proliferation assay MV4;11 (CellTiter-Glo, 72 hours)
Assay type: cell-based
Conditions: Homo sapiens; MV4;11 leukemia cell line, 72 hours; read-out: MV4; 11 IC50
Summary of the method: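 MV4-11 cells (MLL1-AF4 fusion) exposed 72 h at 37 °C to 8 compound concentrations, final 0.632–2000 nM. Viability by CellTiter-Glo luminescence as % of vehicle RLU; % max inhibition = 100 − viability at top concentration.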

Compound | IC50
CC(C)N(C(=O)c1cc(F)ccc1Oc1cncnc1N1CC2(CCN(C[C@@H]3CC[C@@H](NS(=O)(=O)N4CCC4)CO3)CC2)C1)C(C)C [Example 88, 2-((4-(7-(((2S,5R)-5-(Azetidine-1-sulfonamido)tetrahydro-2H-pyran-2-yl)methyl)-2,7-diazaspiro[3.5]nonan-2-yl)pyrimidin-5-yl)oxy)-5-fluoro-N,N-diisopropylbenzamide] | < 100 nM
CC(C)N(C(=O)c1cc(F)ccc1Oc1cncnc1N1CC2(CCN(C[C@@H]3CC[C@@H](NS(=O)(=O)N(C)C(C)C)CO3)CC2)C1)C(C)C [Example 89, 5-Fluoro-N,N-diisopropyl-2-((4-(7-(((2S,5R)-5-((N-isopropyl-N-methylsulfamoyl)amino)tetrahydro-2H-pyran-2-yl)methyl)-2,7-diazaspiro[3.5]nonan-2-yl)pyrimidin-5-yl)oxy)benzamide] | < 100 nM
CC(C)N(C(=O)c1cc(F)ccc1Oc1cncnc1N1CC2(CCN(C[C@@H]3CC[C@@H](NS(N)(=O)=O)CO3)CC2)C1)C(C)C [Example 90, 5-Fluoro-N,N-diisopropyl-2-((4-(7-(((2S,5R)-5-(sulfamoylamino)tetrahydro-2H-pyran-2-yl)methyl)-2,7-diazaspiro[3.5]nonan-2-yl)pyrimidin-5-yl)oxy)benzamide] | < 100 nM
CC(C)N(C(=O)c1cc(F)ccc1Oc1cncnc1N1CC2(CCN(C[C@@H]3CC[C@@H](NS(=O)(=O)N(C)C)CO3)CC2)C1)C1CC1 [Example 93, N-Cyclopropyl-2-((4-(7-(((2S,5R)-5-((N,N-dimethylsulfamoyl)amino)tetrahydro-2H-pyran-2-yl)methyl)-2,7-diazaspiro[3.5]nonan-2-yl)pyrimidin-5-yl)oxy)-5-fluoro-N-isopropylbenzamide] | < 100 nM
CC(C)N(CC(F)F)C(=O)c1cc(F)ccc1Oc1cncnc1N1CC2(CCN(C[C@@H]3CC[C@@H](NS(=O)(=O)N4CCOCC4)CO3)CC2)C1 [Example 94, N-(2,2-Difluoroethyl)-5-fluoro-N-isopropyl-2-((4-(7-(((2S,5R)-5-(morpholine-4-sulfonamido)tetrahydro-2H-pyran-2-yl)methyl)-2,7-diazaspiro[3.5]nonan-2-yl)pyrimidin-5-yl)oxy)benzamide] | < 100 nM
CC(C)N(CC(F)F)C(=O)c1cc(F)ccc1Oc1cncnc1N1CC2(CCN(C[C@@H]3CC[C@@H](NS(=O)(=O)N(C)C)CO3)CC2)C1 [Example 95, N-(2,2-Difluoroethyl)-2-((4-(7-(((2S,5R)-5-((N,N-dimethylsulfamoyl)amino)tetrahydro-2H-pyran-2-yl)methyl)-2,7-diazaspiro[3.5]nonan-2-yl)pyrimidin-5-yl)oxy)-5-fluoro-N-isopropylbenzamide] | < 100 nM
CC(C)N(CC(F)F)C(=O)c1cc(F)ccc1Oc1cncnc1N1CC2(CCN(C[C@@H]3CC[C@@H](NS(C)(=O)=O)CO3)CC2)C1 [Example 96, N-(2,2-Difluoroethyl)-5-fluoro-N-isopropyl-2-((4-(7-(((2S,5R)-5-(methylsulfonamido)tetrahydro-2H-pyran-2-yl)methyl)-2,7-diazaspiro[3.5]nonan-2-yl)pyrimidin-5-yl)oxy)benzamide] | < 100 nM
CCN(CC)S(=O)(=O)N[C@@H]1CC[C@@H](CN2CCC3(CC2)CN(c2ncncc2Oc2ccc(F)cc2C(=O)N(CC(F)F)C(C)C)C3)OC1 [Example 97, 2-((4-(7-(((2S,5R)-5-((N,N-Diethylsulfamoyl)amino)tetrahydro-2H-pyran-2-yl)methyl)-2,7-diazaspiro[3.5]nonan-2-yl)pyrimidin-5-yl)oxy)-N-(2,2-difluoroethyl)-5-fluoro-N-isopropylbenzamide] | < 100 nM
CC(C)N(CC(F)F)C(=O)c1cc(F)ccc1Oc1cncnc1N1CC2(CCN(C[C@@H]3CC[C@@H](NS(=O)(=O)N4CCC4)CO3)CC2)C1 [Example 99, 2-((4-(7-(((2S,5R)-5-(Azetidine-1-sulfonamido)tetrahydro-2H-pyran-2-yl)methyl)-2,7-diazaspiro[3.5]nonan-2-yl)pyrimidin-5-yl)oxy)-N-(2,2-difluoroethyl)-5-fluoro-N-isopropylbenzamide] | < 100 nM
CC(C)N(CC(F)F)C(=O)c1cc(F)ccc1Oc1cncnc1N1CC2(CCN(C[C@@H]3CC[C@@H](NS(=O)(=O)N(C)C(C)C)CO3)CC2)C1 [Example 101, N-(2,2-Difluoroethyl)-5-fluoro-N-isopropyl-2-((4-(7-(((2S,5R)-5-((N-isopropyl-N-methylsulfamoyl)amino)tetrahydro-2H-pyran-2-yl)methyl)-2,7-diazaspiro[3.5]nonan-2-yl)pyrimidin-5-yl)oxy)benzamide] | < 100 nM
CNS(=O)(=O)N[C@@H]1CC[C@@H](CN2CCC3(CC2)CN(c2ncncc2Oc2ccc(F)cc2C(=O)N(CC(F)F)C(C)C)C3)OC1 [Example 102, N-(2,2-Difluoroethyl)-5-fluoro-N-isopropyl-2-((4-(7-(((2S,5R)-5-((N-methylsulfamoyl)amino)tetrahydro-2H-pyran-2-yl)methyl)-2,7-diazaspiro[3.5]nonan-2-yl)pyrimidin-5-yl)oxy)benzamide] | < 100 nM
CC(C)N(CC(F)(F)F)C(=O)c1cc(F)ccc1Oc1cncnc1N1CC2(CCN(C[C@@H]3CC[C@@H](NS(=O)(=O)N(C)C)CO3)CC2)C1 [Example 107, 2-((4-(7-(((2S,5R)-5-((N,N-Dimethylsulfamoyl)amino)tetrahydro-2H-pyran-2-yl)methyl)-2,7-diazaspiro[3.5]nonan-2-yl)pyrimidin-5-yl)oxy)-5-fluoro-N-isopropyl-N-(2,2,2-trifluoroethyl)benzamide] | < 100 nM
CC(C)N(CC(F)(F)F)C(=O)c1cc(F)ccc1Oc1cncnc1N1CC2(CCN(C[C@@H]3CC[C@@H](NS(=O)(=O)N4CCOCC4)CO3)CC2)C1 [Example 108, 5-Fluoro-N-isopropyl-2-((4-(7-(((2S,5R)-5-(morpholine-4-sulfonamido)tetrahydro-2H-pyran-2-yl)methyl)-2,7-diazaspiro[3.5]nonan-2-yl)pyrimidin-5-yl)oxy)-N-(2,2,2-trifluoroethyl)benzamide] | < 100 nM
CC(C)N(CC(F)(F)F)C(=O)c1cc(F)ccc1Oc1cncnc1N1CC2(CCN(C[C@@H]3CC[C@@H](NS(=O)(=O)C(C)C)CO3)CC2)C1 [Example 109, 5-Fluoro-N-isopropyl-2-((4-(7-(((2S,5R)-5-((1-methylethyl)sulfonamido)tetrahydro-2H-pyran-2-yl)methyl)-2,7-diazaspiro[3.5]nonan-2-yl)pyrimidin-5-yl)oxy)-N-(2,2,2-trifluoroethyl)benzamide] | < 100 nM
CC(C)N(C(=O)c1cc(F)ccc1Oc1cncnc1N1CC2(CCN(C[C@@H]3CC[C@@H](NS(=O)(=O)C(C)C)CO3)CC2)C1)C1CC(F)(F)C1 [Example 110, N-(3,3-Difluorocyclobutyl)-5-fluoro-N-isopropyl-2-((4-(7-(((2S,5R)-5-((1-methylethyl)sulfonamido)tetrahydro-2H-pyran-2-yl)methyl)-2,7-diazaspiro[3.5]nonan-2-yl)pyrimidin-5-yl)oxy)benzamide] | < 100 nM
CC(C)N(C(=O)c1cc(F)ccc1Oc1cncnc1N1CC2(CCN(C[C@@H]3CC[C@@H](NS(=O)(=O)C4CC4)CO3)CC2)C1)C1CC(F)(F)C1 [Example 111, 2-((4-(7-(((2S,5R)-5-(Cyclopropanesulfonamido)tetrahydro-2H-pyran-2-yl)methyl)-2,7-diazaspiro[3.5]nonan-2-yl)pyrimidin-5-yl)oxy)-N-(3,3-difluorocyclobutyl)-5-fluoro-N-isopropylbenzamide] | < 100 nM
